# “Also recorded” adds a separate entry of the source.
# What was measured:
# [1] = Stability of CLF in human plasma at room temperature and 4° C. after 30 min pre-incubation in whole blood at 37° C. (Test 2), HPLC-MS/MS; type: in vitro ADME; conditions: for CLF concentration: plasma after 30 min blood pre-incubation at 37° C., mean ± SEM (n = 2); for percentage of compound remaining (by comparing with content at To), lowest over incubation / CLF remaining: plasma after blood pre-incubation; for percentage of compound remaining (by comparing with content at To), lowest over incubation: up to 24 h; for CLF remaining: vs To
# Procedure: Eighty microliters (80 μl) of the working solution of CLF were added to 8 ml of human EDTA blood. The final concentration of CLF in blood was of 100 ng/ml. Then, sample was incubated at 37° C. in water bath for 30 min and plasma was prepared as described previously. Plasma was then divided into two equal fractions of 2 ml each. One fraction was incubated at room temperature and the second one was incubated at 4° C. in a cold room. Two aliquots of 200 μl were taken from both fractions just before incubation and after 30 min, 120 min and 24 h of incubation. Samples were stored at −70° C. until further analysis. […] Thus, a stock solution of IS at 100 μg/ml in acetonitrile was 50-fold diluted in acetonitrile in order to obtain a final concentration of 2 μg/ml. Then, 200 μl of this solution were added to each plasma sample in order to precipitate the proteins. Samples were vortexed/mixed and centrifuged 5 min at 20,000 g (4° C.). After centrifugation, the clear supernatant (around 250 μl) was transferred into 1.2 ml HPLC glass vials and sealed. Samples were placed into the refrigerated autosampler and 20 μl were injected into the HPLC-MS/MS system. Test samples were injected twice. […] The injected volume of sample was 20 μl and the “full loop” mode was applied. The temperature of the analytical column was kept at 30° C. CLF and its IS were separated on an Acclaim 120 C18 column (5 μm, 2.1×100 mm, Dionex) by elution with a linear gradient of acetonitrile in water as described in Table 6. An ion trap mass spectrometer equipped with an ESI interface was operated in the positive ionization mode. For each compound, the most abundant ion formed in MS was selected for MS/MS fragmentations. In order to increase the sensitivity and the specificity of the method, the MRM mode was selected. The most specific daughter ions formed in MS/MS were used for quantification.
# [2] = Effect of light exposure on CLF-spiked serum, 48 hrs at room temperature, CLF ELISA; type: physicochemical, human; conditions: for % difference (light from dark) / observed Light / observed dark: serum pool; for % difference (light from dark) / observed dark: 48 hrs at RT; for observed Light: 48 hrs at RT near light source; for observed dark: covered with aluminium foil
# Procedure: (§1) These conditions were used for all assays described in Phase 2a (above) and Phase 2b (below). See Appendix B and C for buffer and conjugate formulations respectively: • Add 25 μl/well of sample or standard (0-1000 ng/ml CLF in Buffer #24) to the wells of a streptavidin-coated microtitre plate (NovAssay, F2SAC). • Add 100 μl/well of fluorescein-biotin (Sigma B9431) at 20 ng/ml in Buffer #24+0.2% w/v ANS (Sigma 10417). • Add 100 μl/well of anti-fluorescein HRP (NovAssay, DV047/17-3) at 100 ng/ml in Buffer #24. • Incubate the plate for 30 minutes at room temperature. • Wash the plate 3 times with 800 μl/well Buffer #29 and tap the plate dry. • Add 100 μl/well of SureBlue Reserve TMB Substrate (KPL) and incubate the plate for 10 minutes at room temperature. • Stop the substrate reaction by adding 100 μl/well of 1M HCl and read the absorbance at 450 nm wavelength (ThermoFisher Scientific, Multiskan FC).
# For the study of the effect of light, 3 pools of serum were spiked with CLF at 31.25, 125 and 500 ng/ml. One aliquot of each pool was put near a light source (fluorescent bulb 58 watts, at a distance of 85 cm). The “dark” sample was covered with aluminium foil. The samples were at RT (˜18-22° C.). Storage time was 48 hrs.
# [3] = Stability (LTD samples) of CLF in plasma measured with the CLF ELISA; type: in vitro ADME, human
# Procedure: as §1
# The samples provided (LTD) included 8 “standards” (no details of their preparation were given, apart from the concentration which ranged from 0 to 100 ng/ml) and samples which were presumed to be stability samples (no details of their preparation were given). The stability work appeared to have been undertaken on 3 individual donor samples. Note, that 2 of the donor samples were heavily haemolysed.
# [4] = room temperature (25 ± 2° C.), 0.0 hours
# [5] = room temperature (25 ± 2° C.), 0.5 hours
# [6] = room temperature (25 ± 2° C.), 2.0 hours
# [7] = room temperature (25 ± 2° C.), 24.0 hours
smiles,measurement,setting,value
"CC(CCC(=O)NC(CCCCNC(=S)Nc1ccc(-c2c3ccc(=O)cc-3oc3cc(O)ccc23)c(C(=O)O)c1)C(=O)O)C1CCC2C3C(O)CC4CC(O)CCC4(C)C3CC(O)C12C [CLF, Cholyl-L-Lysyl-Fluorescein]",plasmatic concentrations measured,"[1]; blood spiked with 100 ng/ml, plasma at 4° C. and room temperature, 0-24 h",147.7 to 164.9 ng/mL
same,CLF concentration,"[1]; 4° C., 0.0 hours",163.3 ± 3.6 ng/mL
same,CLF concentration,"[1]; 4° C., 0.5 hours",155.4 ± 7.0 ng/mL
same,CLF concentration,"[1]; 4° C., 2.0 hours",164.9 ± 4.2 ng/mL
same,CLF concentration,"[1]; 4° C., 24.0 hours",152.7 ± 4.2 ng/mL
same,CLF concentration,[1]; [4],163.3 ± 3.6 ng/mL
same,CLF concentration,[1]; [5],159.3 ± 0.6 ng/mL
same,CLF concentration,[1]; [6],151.1 ± 0.8 ng/mL
same,CLF concentration,[1]; [7],147.7 ± 3.7 ng/mL
same,"percentage of compound remaining (by comparing with content at To), lowest over incubation",[1]; 4° C.,≥ 93.5%
same,"percentage of compound remaining (by comparing with content at To), lowest over incubation",[1]; room temperature,at least 90.5%
same,CLF remaining,"[1]; 4° C., 0.0 hours",100.0%
same,CLF remaining,"[1]; 4° C., 0.5 hours",95.2%
same,CLF remaining,"[1]; 4° C., 2.0 hours",101.0%
same,CLF remaining,"[1]; 4° C., 24.0 hours",93.5%
same,CLF remaining,[1]; [4],100.0%
same,CLF remaining,[1]; [5],97.6%
same,CLF remaining,[1]; [6],92.5%
same,CLF remaining,[1]; [7],90.5%
same,CLF stability in plasma after pretreatment of whole blood at 37° C.,"[1]; room temperature and 4° C., up to 24 hours",stable during 24 h; also recorded: stable under these conditions
same,CLF immunoreactivity lost,"[2]; exposed to light, after 48 hrs","long period, with up to 25% of CLF"
same,% difference (light from dark),[2]; expected 31.25 ng/ml,0%
same,observed Light,[2]; expected 31.25 ng/ml,37 ng/mL
same,observed dark,[2]; expected 31.25 ng/ml,37 ng/mL
same,% difference (light from dark),[2]; expected 125 ng/ml,−25%
same,observed Light,[2]; expected 125 ng/ml,107 ng/mL
same,observed dark,[2]; expected 125 ng/ml,143 ng/mL
same,% difference (light from dark),[2]; expected 500 ng/ml,−15%
same,observed Light,[2]; expected 500 ng/ml,423 ng/mL
same,observed dark,[2]; expected 500 ng/ml,495 ng/mL
same,CLF immunoreactivity lost on exposure to light,"[2]; spiked serum, 48 hrs, room temperature, fluorescent bulb vs dark",up to 25%
same,comparison of storage temperatures,"[3]; LTD plasma stability samples, 4° C. vs RT (~18-22° C.)",4 °C storage is slightly better than RT
same,percent loss of CLF,"[3]; LTD plasma stability samples, 24 hours",approximately 10%
same,percent loss of CLF,"[3]; PLASMA 2.4, T0",0%
same,percent loss of CLF,"[3]; PLASMA 2.4, T30",−11%
same,percent loss of CLF,"[3]; PLASMA 2.4, T120",−12%
same,percent loss of CLF,"[3]; PLASMA 2.4, T24 h",−11%
same,percent loss of CLF,"[3]; PLASMA 2.5.1, T0",0%
same,percent loss of CLF,"[3]; PLASMA 2.5.1, T30, 4° C.",3%
same,percent loss of CLF,"[3]; PLASMA 2.5.1, T30 RT",−5%
same,percent loss of CLF,"[3]; PLASMA 2.5.1, T120 4° C.",1%
same,percent loss of CLF,"[3]; PLASMA 2.5.1, T120 RT",−6%
same,percent loss of CLF,"[3]; PLASMA 2.5.1, T24 h 4° C.",−9%
same,percent loss of CLF,"[3]; PLASMA 2.5.1, T24 h RT",−13%
same,percent loss of CLF,"[3]; PLASMA 2.5.2, T0",0%
same,percent loss of CLF,"[3]; PLASMA 2.5.2, T30, 4° C.",10%
same,percent loss of CLF,"[3]; PLASMA 2.5.2, T30 RT",3%
same,percent loss of CLF,"[3]; PLASMA 2.5.2, T120 4° C.",10%
same,percent loss of CLF,"[3]; PLASMA 2.5.2, T120 RT",1%
same,percent loss of CLF,"[3]; PLASMA 2.5.2, T24 h 4° C.",−5%
same,percent loss of CLF,"[3]; PLASMA 2.5.2, T24 h RT",−14%

# Reference: patent publication US20150212068A1, “Cholyl-L-Lysyl-Fluorescein Assay” (Novassay SA, priority 2012, published 2015)
